Assay results as given in paper PMC7413254 (Nature Communications, 2020).
Read-outs that look alike come from different tables or passages of the source.

Experiments:
PfCRT^Dd2 [1] = molecular target: T1, PfCRT^Dd2 (Plasmodium falciparum, UniProt Q9N623, A220S/I356T/K76T/M74I/N326S/N75E/Q271E/R371I); assay: cell-based; format: cell-based; conditions: for Uptake of [3H]CQ (% PfCRTDd2 control), trans-stimulation / PfCRT-mediated [3H]CQ transport, trans-stimulation (% PfCRTDd2 control): PfCRTDd2 oocytes; for Uptake of [3H]CQ (% PfCRTDd2 control), trans-stimulation: total [3H]CQ transport, normalised to the oocyte type control; for PfCRT-mediated [3H]CQ transport, trans-stimulation (% PfCRTDd2 control): normalised to oocyte type control; for [3H]CQ transport (% PfCRTDd2 control), trans-stimulation, PfCRTDd2: PfCRT-mediated component (background subtracted), mean ± SEM, SEM
Outline: (§1)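 Oocytes (ten per treatment, ≥4 independent frogs/days) were preloaded by injecting VF-6 in 25 nL ND96 at pH 5.0, 5.5, 6.0 or 7.0, or Na^+-free choline buffer, then uptake run 1.5 h, 27.5 °C, ND96 pH 5.5 by default. Internal concentrations assumed ~400 nL oocyte volume.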

PfCRT^Ecu1110 [2] = molecular target: T2, PfCRT^Ecu1110 (Plasmodium falciparum, UniProt Q9N623, A220S/I356L/K76T/N326D); assay: cell-based; format: cell-based; conditions: for Uptake of [3H]CQ (% PfCRTEcu1110 control), trans-stimulation / PfCRT-mediated [3H]CQ transport, trans-stimulation (% PfCRTEcu1110 control): PfCRTEcu1110 oocytes; for Uptake of [3H]CQ (% PfCRTEcu1110 control), trans-stimulation: total [3H]CQ transport, normalised to the oocyte type control; for PfCRT-mediated [3H]CQ transport, trans-stimulation (% PfCRTEcu1110 control): normalised to oocyte type control; for [3H]CQ transport (% PfCRTDd2 control), trans-stimulation, PfCRTEcu1110: PfCRT-mediated component (background subtracted), sheet title says normalised to PfCRTDd2 control, mean ± SEM, SEM
Outline: as §1

PfNT1 = molecular target: T3, PfNT1 (Plasmodium falciparum, UniProt Q8IDM6); assay: cell-based; format: cell-based; conditions: PfNT1 oocytes, total [3H]CQ transport, normalised to the oocyte type control
T3 construct: expressed in transfected cells; host or cells: Xenopus laevis oocytes (stage V-VI), cRNA-injected
Outline: as §1

PfCRT^3D7 [3] = molecular target: T4, PfCRT^3D7 (Plasmodium falciparum, UniProt Q8IBZ9); assay: cell-based; format: cell-based; conditions: for Uptake of [3H]CQ (% PfCRT3D7 control), trans-stimulation / PfCRT-mediated [3H]CQ transport, trans-stimulation (% PfCRT3D7 control): PfCRT3D7 oocytes; for Uptake of [3H]CQ (% PfCRT3D7 control), trans-stimulation: total [3H]CQ transport, normalised to the oocyte type control; for PfCRT-mediated [3H]CQ transport, trans-stimulation (% PfCRT3D7 control): normalised to oocyte type control
Outline: as §1

non-expressing oocytes [4] = format: cell-based, Xenopus laevis; conditions: non-expressing oocytes, total [3H]CQ transport, normalised to the oocyte type control
Outline: as §1

PfCRT^3D7 [5] = molecular target: T4, PfCRT^3D7; assay: cell-based; format: cell-based; conditions: PfCRT3D7 oocytes, total [3H]CQ transport, normalised to the oocyte type control
Outline: (§2)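 Using pH 5.5 ND96 at 27.5 °C, uptake is followed for 1.5 h, stopped with ice-cold buffer, and quantified as accumulated radioactivity per oocyte after SDS lysis.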

non-expressing oocytes [6] = assay: cells; format: cell-based, Xenopus laevis; conditions: non-expressing oocytes, total [3H]CQ transport, normalised to the oocyte type control
Outline: as §2

PfCRT^Dd2 [7] = molecular target: T1, PfCRT^Dd2; assay: [3H]CQ uptake into Xenopus oocytes, cis-inhibition by unlabelled solute; format: cell-based; conditions: PfCRTDd2 oocytes, background [3H]CQ accumulation subtracted, normalised to oocyte type control
Outline: as §2

PfCRT^Ecu1110 [8] = molecular target: T2, PfCRT^Ecu1110; assay: as above; format: cell-based; conditions: for Uptake of [3H]CQ (% PfCRTEcu1110 control), cis-inhibition / PfCRT-mediated [3H]CQ transport, cis-inhibition (% PfCRTEcu1110 control): PfCRTEcu1110 oocytes; for Uptake of [3H]CQ (% PfCRTEcu1110 control), cis-inhibition: total [3H]CQ transport, normalised to the oocyte type control; for PfCRT-mediated [3H]CQ transport, cis-inhibition (% PfCRTEcu1110 control): background [3H]CQ accumulation subtracted, normalised to oocyte type control; for [3H]CQ transport (% PfCRTEcu1110 control), cis-inhibition, PfCRTEcu1110: PfCRT-mediated component (background subtracted), sheet title says normalised to PfCRTDd2 control, mean ± SEM, SEM
Outline: as §2

[9] = [test solute]i = 45 mM (30 mM for some solutes due to solubility)
[10] = [test solute]i = 5 mM (intracellular)
[11] = [test solute]i = 45 mM (intracellular; 30 mM for some solutes due to solubility)
[12] = [test solute]i = 5 mM (injected)

T4 sequence (Q8IBZ9 59-398): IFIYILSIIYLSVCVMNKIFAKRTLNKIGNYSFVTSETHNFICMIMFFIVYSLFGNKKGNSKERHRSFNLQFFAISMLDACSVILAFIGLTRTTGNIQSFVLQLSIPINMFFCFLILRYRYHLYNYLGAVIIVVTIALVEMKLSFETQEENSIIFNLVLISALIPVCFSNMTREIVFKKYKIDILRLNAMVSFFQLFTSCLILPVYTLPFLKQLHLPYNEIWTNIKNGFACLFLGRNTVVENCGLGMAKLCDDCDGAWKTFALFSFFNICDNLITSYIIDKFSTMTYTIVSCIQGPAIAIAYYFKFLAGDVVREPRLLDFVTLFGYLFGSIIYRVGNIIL
T1 sequence (Q9N623 whole entry A220S/I356T/K76T/M74I/N326S/N75E/Q271E/R371I): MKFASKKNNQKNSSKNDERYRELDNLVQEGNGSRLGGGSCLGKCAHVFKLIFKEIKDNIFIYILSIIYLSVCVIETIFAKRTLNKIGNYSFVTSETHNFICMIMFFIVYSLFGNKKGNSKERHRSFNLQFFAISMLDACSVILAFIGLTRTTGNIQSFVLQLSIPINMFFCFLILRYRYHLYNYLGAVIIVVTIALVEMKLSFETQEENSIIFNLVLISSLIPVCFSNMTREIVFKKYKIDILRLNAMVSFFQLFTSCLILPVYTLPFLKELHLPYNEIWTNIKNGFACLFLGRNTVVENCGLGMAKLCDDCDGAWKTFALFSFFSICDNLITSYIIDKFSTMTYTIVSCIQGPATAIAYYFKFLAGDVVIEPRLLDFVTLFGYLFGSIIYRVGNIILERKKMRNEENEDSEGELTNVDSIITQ
T2 sequence (Q9N623 whole entry A220S/I356L/K76T/N326D): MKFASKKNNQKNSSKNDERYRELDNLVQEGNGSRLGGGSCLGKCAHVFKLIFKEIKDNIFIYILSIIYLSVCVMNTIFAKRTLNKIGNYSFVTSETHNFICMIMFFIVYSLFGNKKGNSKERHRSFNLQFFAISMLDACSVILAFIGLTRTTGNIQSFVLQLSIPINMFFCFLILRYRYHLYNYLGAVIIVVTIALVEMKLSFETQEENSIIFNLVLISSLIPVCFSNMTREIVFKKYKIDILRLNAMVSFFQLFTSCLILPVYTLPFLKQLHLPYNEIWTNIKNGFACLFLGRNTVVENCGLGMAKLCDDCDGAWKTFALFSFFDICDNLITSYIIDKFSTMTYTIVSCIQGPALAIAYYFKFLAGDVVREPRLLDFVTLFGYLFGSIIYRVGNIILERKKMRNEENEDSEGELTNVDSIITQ
T3 sequence (Q8IDM6 whole entry): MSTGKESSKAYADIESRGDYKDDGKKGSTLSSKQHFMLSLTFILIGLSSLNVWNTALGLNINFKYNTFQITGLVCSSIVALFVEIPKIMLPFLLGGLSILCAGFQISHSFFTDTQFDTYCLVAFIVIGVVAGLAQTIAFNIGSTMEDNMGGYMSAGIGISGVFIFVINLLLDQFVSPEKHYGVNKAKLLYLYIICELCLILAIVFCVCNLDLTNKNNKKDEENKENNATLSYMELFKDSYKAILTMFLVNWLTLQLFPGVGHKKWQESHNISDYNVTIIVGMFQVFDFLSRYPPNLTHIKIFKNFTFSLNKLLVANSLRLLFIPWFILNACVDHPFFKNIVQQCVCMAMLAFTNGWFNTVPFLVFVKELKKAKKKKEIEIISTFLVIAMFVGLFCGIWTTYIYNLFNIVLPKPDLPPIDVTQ

PHFD [PD-4]
Uptake of [3H]CQ (% PfCRTDd2 control), trans-stimulation (PfCRT^Dd2 [1]; [test solute]i = 5 mM): 102 ± 2.4 % PfCRTDd2 control
Uptake of [3H]CQ (% PfCRTDd2 control), trans-stimulation (PfCRT^Dd2 [1]; [9]): 99 ± 2.9 % PfCRTDd2 control
PfCRT-mediated [3H]CQ transport, trans-stimulation (% PfCRTDd2 control) (PfCRT^Dd2 [1]; [10]): 100 ± 4.2 % PfCRTDd2 control
PfCRT-mediated [3H]CQ transport, trans-stimulation (% PfCRTDd2 control) (PfCRT^Dd2 [1]; [11]): 97 ± 2.8 % PfCRTDd2 control
[3H]CQ transport (% PfCRTDd2 control), trans-stimulation, PfCRTDd2 (PfCRT^Dd2 [1]; [12]): 100 ± 4.2 % PfCRTDd2 control
[3H]CQ transport (% PfCRTDd2 control), trans-stimulation, PfCRTDd2 (PfCRT^Dd2 [1]; [9]): 97 ± 2.8 % PfCRTDd2 control
Uptake of [3H]CQ (% PfCRTEcu1110 control), trans-stimulation (PfCRT^Ecu1110 [2]; [test solute]i = 5 mM): 98 ± 1.4 % PfCRTEcu1110 control
Uptake of [3H]CQ (% PfCRTEcu1110 control), trans-stimulation (PfCRT^Ecu1110 [2]; [9]): 100 ± 3.5 % PfCRTEcu1110 control
PfCRT-mediated [3H]CQ transport, trans-stimulation (% PfCRTEcu1110 control) (PfCRT^Ecu1110 [2]; [10]): 96 ± 3.2 % PfCRTEcu1110 control
PfCRT-mediated [3H]CQ transport, trans-stimulation (% PfCRTEcu1110 control) (PfCRT^Ecu1110 [2]; [11]): 98 ± 4.3 % PfCRTEcu1110 control
[3H]CQ transport (% PfCRTDd2 control), trans-stimulation, PfCRTEcu1110 (PfCRT^Ecu1110 [2]; [12]): 29 ± 1.4 % PfCRTEcu1110 control
[3H]CQ transport (% PfCRTDd2 control), trans-stimulation, PfCRTEcu1110 (PfCRT^Ecu1110 [2]; [9]): 30 ± 1.6 % PfCRTEcu1110 control
Uptake of [3H]CQ (% PfNT1 control), trans-stimulation (PfNT1; [test solute]i = 5 mM): 100 ± 3.5 % PfNT1 control
Uptake of [3H]CQ (% PfNT1 control), trans-stimulation (PfNT1; [9]): 98 ± 2.2 % PfNT1 control
Uptake of [3H]CQ (% PfCRT3D7 control), trans-stimulation (PfCRT^3D7 [3]; [test solute]i = 5 mM): 99 ± 3.6 % PfCRT3D7 control
Uptake of [3H]CQ (% PfCRT3D7 control), trans-stimulation (PfCRT^3D7 [3]; [9]): 100 ± 2.1 % PfCRT3D7 control
[3H]CQ transport (% PfCRT3D7 control), trans-stimulation, PfCRT3D7 (PfCRT^3D7 [3]; SEM): 0.1 ± 0.02
PfCRT-mediated [3H]CQ transport, trans-stimulation (% PfCRT3D7 control) (PfCRT^3D7 [3]; [10]): 97 ± 2.9 % PfCRT3D7 control
PfCRT-mediated [3H]CQ transport, trans-stimulation (% PfCRT3D7 control) (PfCRT^3D7 [3]; [11]): 98 ± 4.2 % PfCRT3D7 control
Uptake of [3H]CQ (% non-expressing oocyte control), trans-stimulation (non-expressing oocytes [4]; [test solute]i = 5 mM): 98 ± 2.0 % non-expressing oocyte control
Uptake of [3H]CQ (% non-expressing oocyte control), trans-stimulation (non-expressing oocytes [4]; [9]): 99 ± 3.7 % non-expressing oocyte control
Uptake of [3H]CQ (% PfCRT3D7 control), cis-inhibition (PfCRT^3D7 [5]; [test solute] = 0.5 mM): 98 ± 5.6 % PfCRT3D7 control
Uptake of [3H]CQ (% PfCRT3D7 control), cis-inhibition (PfCRT^3D7 [5]; [test solute] = 1 mM): 100 ± 5.5 % PfCRT3D7 control
Uptake of [3H]CQ (% PfCRT3D7 control), cis-inhibition (PfCRT^3D7 [5]; [test solute] = 2 mM): 99 ± 3.5 % PfCRT3D7 control
Uptake of [3H]CQ (% non-expressing oocyte control), cis-inhibition (non-expressing oocytes [6]; [test solute] = 0.5 mM): 100 ± 4.3 % non-expressing oocyte control
Uptake of [3H]CQ (% non-expressing oocyte control), cis-inhibition (non-expressing oocytes [6]; [test solute] = 1 mM): 100 ± 3.7 % non-expressing oocyte control
Uptake of [3H]CQ (% non-expressing oocyte control), cis-inhibition (non-expressing oocytes [6]; [test solute] = 2 mM): 100 ± 4.6 % non-expressing oocyte control
PfCRT-mediated [3H]CQ transport, cis-inhibition (% PfCRTDd2 control) (PfCRT^Dd2 [7]; [test solute] = 0.5 mM): 56 ± 1.1 % PfCRTDd2 control
PfCRT-mediated [3H]CQ transport, cis-inhibition (% PfCRTDd2 control) (PfCRT^Dd2 [7]; [test solute] = 1 mM): 42 ± 0.5 % PfCRTDd2 control
PfCRT-mediated [3H]CQ transport, cis-inhibition (% PfCRTDd2 control) (PfCRT^Dd2 [7]; [test solute] = 2 mM): 17 ± 0.7 % PfCRTDd2 control
Uptake of [3H]CQ (% PfCRTEcu1110 control), cis-inhibition (PfCRT^Ecu1110 [8]; [test solute] = 0.5 mM): 54 ± 3.1 % PfCRTEcu1110 control
Uptake of [3H]CQ (% PfCRTEcu1110 control), cis-inhibition (PfCRT^Ecu1110 [8]; [test solute] = 1 mM): 38 ± 3.1 % PfCRTEcu1110 control
Uptake of [3H]CQ (% PfCRTEcu1110 control), cis-inhibition (PfCRT^Ecu1110 [8]; [test solute] = 2 mM): 27 ± 0.8 % PfCRTEcu1110 control
PfCRT-mediated [3H]CQ transport, cis-inhibition (% PfCRTEcu1110 control) (PfCRT^Ecu1110 [8]; [test solute] = 0.5 mM): 49 ± 2.1 % PfCRTEcu1110 control
PfCRT-mediated [3H]CQ transport, cis-inhibition (% PfCRTEcu1110 control) (PfCRT^Ecu1110 [8]; [test solute] = 1 mM): 33 ± 1.5 % PfCRTEcu1110 control
PfCRT-mediated [3H]CQ transport, cis-inhibition (% PfCRTEcu1110 control) (PfCRT^Ecu1110 [8]; [test solute] = 2 mM): 24 ± 1.1 % PfCRTEcu1110 control
[3H]CQ transport (% PfCRTEcu1110 control), cis-inhibition, PfCRTEcu1110 (PfCRT^Ecu1110 [8]; [test solute] = 0.5 mM): 15 ± 0.5 % PfCRTEcu1110 control
[3H]CQ transport (% PfCRTEcu1110 control), cis-inhibition, PfCRTEcu1110 (PfCRT^Ecu1110 [8]; [test solute] = 1 mM): 10 ± 0.1 % PfCRTEcu1110 control
[3H]CQ transport (% PfCRTEcu1110 control), cis-inhibition, PfCRTEcu1110 (PfCRT^Ecu1110 [8]; [test solute] = 2 mM): 8.0 ± 0.06 % PfCRTEcu1110 control
